Reference: patent EP0525063B1, “Use of specific fatty acids in the manufacture of a medicament for their Iontophoresis delivery” (priority 1990, dated 1991)
Where “and” joins values, the source holds several entries; their conditions need not be identical. Equal values may be shown once. Where a name gives a salt, the structure may show the parent alone. Read-outs that look alike come from different tables or passages of the source.

Columns and labels:
[1] = Method: (§1) Either pig skin or human cadaver skin was used. It was placed in the cell dermal side down.
(§2) The receptor solution completely filled the receptor compartment.
(§3) All skin was stored frozen.
(§4) Each experiment consisted of three phases totaling 66 hours. […]
(§5) The injection volume was 10 »l.

[2] = Iontophoretic drug delivery through skin in vertical flow-through diffusion cell, HPLC of receptor solution (human skin); type: in vitro ADME; details: oxymorphone, 0 mg/ml oleic acid (control)
Method: as §1, §2, §3, §4, §5
Tests with enhancer may be compared to the control delivery rate with no oleic acid and using human skin. Tests summarized in Table 4 were done using oxymorphone in the donor compartment.

Remark: listed apart in the source
[3] = delivery of HM-HCl 0.1M, enhancer 100 mg/ml (10.0%), E/W 60/40, current 1 mA

With `CCCCCCCC(=O)O` [Caprylic acid, octanoic acid] the “Enhancement Factor” value ([1]; delivery of HM-HCl 0.1M, enhancer 100 mg/ml (10.0%), E/W 48/52, current 1 mA) was 3.6.
In the case of `CCCCCCCCCC(=O)O` [Capric acid, decanoic acid], the “Enhancement Factor” value [1, 3] is reported as 3.9.
With `CN1CC[C@]23c4c5ccc(O)c4O[C@H]2C(=O)CC[C@@]3(O)[C@H]1C5` [Oxy-HCl, oxymorphone hydrochloride] the “Steady State Delivery Rate ± sd” value ([2]; current 0 mA) was 27 ± 25 µg/h, the “Steady State Delivery Rate ± sd” value ([2]; current 0.25 mA) was 228 ± 55 µg/h and the “Steady State Delivery Rate ± sd” value ([2]; current 0.50 mA) was 542 ± 62 µg/h. For the same compound, the “Steady State Delivery Rate ± sd” value ([2]; current 0.75 mA) was 910 ± 117 µg/h, the “Steady State Delivery Rate ± sd” value ([2]; current 1.0 mA) was 1024 ± 276 µg/h and the “Steady State Delivery Rate ± sd” value ([1]; Oxy-HCl 0.1M, no enhancer, E/W 67/33, current 1 mA) was 1202 ± 133 µg/h. The “typical iontophoretic steady state delivery rate” value ([1]; current of 1 mA, without the addition of a fatty acid, human skin or pig skin) was “about 1200 »g/hr”.
In the case of `CCCCCCCC/C=C\CCCCCCCC(=O)O` [Oleic acid, cis-9-octadecenoic acid], the “steady state (phase II) delivery rate” value (Scheme B: 1% oleic acid + drug in passive phase I, phase II 0.1 M HM.HCl in DI W without enhancer, current on, pig skin) is reported as 2163 ± 354 »g/hr, the “delivery by the end of phase I” value (Scheme B: passive phase I (18 h, current off), 1% oleic acid + 0.1 M HM.HCl in E/W 67/33, pig skin) is reported as “approximately 1800 »g/hr” and the “Enhancement Factor” value (delivery of HM-HCl 0.1M, enhancer 10 mg/ml (1.0%), E/W 67/33, current 1 mA) is reported as 4.3. For the same compound, the “Enhancement Factor” value (delivery of Oxy-HCl 0.1M, enhancer 5 mg/ml (0.5%), E/W 67/33, current 1 mA, ratio of steady state rates with and without enhancer) was 4.7, the “Enhancement Factor” value (delivery of oxymorphone-HCl, oleic acid 0.25 mg/ml (0.025%), E/W 48/52, 1 mA, pig skin) was 0 and the “Enhancement Factor” value (delivery of oxymorphone-HCl, oleic acid 0.50 mg/ml (0.050%), E/W 48/52, 1 mA, pig skin) was 1.3. For the same compound, the “Enhancement Factor” value (delivery of oxymorphone-HCl, oleic acid 1.0 mg/ml (0.10%), E/W 52/48, 1 mA, pig skin) was 1.9, the “Enhancement Factor” value (delivery of oxymorphone-HCl, oleic acid 2.0 mg/ml (0.20%), E/W 56/44, 1 mA, pig skin) was 3.2 and the “Enhancement Factor” value (delivery of oxymorphone-HCl, oleic acid 2.5 mg/ml (0.25%), E/W 56/44, 1 mA, pig skin, two identical tests on different days) was 4.2 and 4.5. The “Enhancement Factor” value (delivery of oxymorphone-HCl, oleic acid 5.0 mg/ml (0.50%), E/W 67/33, 1 mA, pig skin) was 4.7, the “Enhancement Factor” value ([1]; oleic acid 50 mg/ml (5%), solvent PG/E/W (30/45/20)) was 4.3 and the “Enhancement Factor” value ([1]; oleic acid 50 mg/ml (5%), solvent PG/E/W (65/20/10)) was 2.5.
For `CCCCCCCCCCCC(=O)O` [Lauric acid, dodecanoic acid], the “Steady State Delivery Rate ± sd” value [1] was 4838 ± 766 µg/h and the “Enhancement Factor” value [1, 3] was 4.0.
